These results are taken from paper PMC2646255 (Journal of medicinal chemistry, 2008).

One may read the inhibition as the share of the control response that was lost under treatment. As usually defined, the pKi is the Ki on a negative log10 scale, so that one unit is a factor of ten. Low values mean a large Ki, high ones a small Ki.

pKi: −log10 of the molar value.

Data set [1] concerns 5-HT2A receptor. Briefly: NIMH-PDSP binding screen. The settings on record: 10 μM.
Data set [2] deals with 5-HT2C receptor. Description: NIMH-PDSP binding screen. The following applies: 10 μM.
Data set [3] has as its system κ-opiate receptor. Description: NIMH-PDSP binding screen. The settings on record: 10 μM.
Data set [4] deals with σ1 receptor (Cavia porcellus, UniProt Q60492). Description: NIMH-PDSP binding screen. The settings on record: read-out: inhibition of binding.
In data set [5] the target is T1, σ2 receptor (Rattus norvegicus, UniProt Q5U3Y7).
T1 sequence (Q5U3Y7 1-176): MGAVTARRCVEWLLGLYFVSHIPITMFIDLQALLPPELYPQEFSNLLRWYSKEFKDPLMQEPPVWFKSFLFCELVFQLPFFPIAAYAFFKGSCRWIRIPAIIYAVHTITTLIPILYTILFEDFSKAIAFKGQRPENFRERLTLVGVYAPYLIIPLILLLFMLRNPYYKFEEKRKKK
Briefly: NIMH-PDSP binding screen.

Data set [6] is classed as in vivo, rhesus monkeys (Macaca mulatta). The following applies: 1 mg/kg i.v. at 30 min after [^11C]3, DCPQ-treated monkeys.
In data set [7] the test system is P-gp. The settings on record: monkey, DCPQ 8 mg/kg or 16 mg/kg i.v. before [^11C]3.
For data set [8] the following is noted: monkey, DCPQ 8 mg/kg i.v.
For data set [9], the system named is P-gp. The settings on record: P-gp knockout mouse brain; cited from earlier work.

σ1 receptor, sequence (Q60492 whole entry): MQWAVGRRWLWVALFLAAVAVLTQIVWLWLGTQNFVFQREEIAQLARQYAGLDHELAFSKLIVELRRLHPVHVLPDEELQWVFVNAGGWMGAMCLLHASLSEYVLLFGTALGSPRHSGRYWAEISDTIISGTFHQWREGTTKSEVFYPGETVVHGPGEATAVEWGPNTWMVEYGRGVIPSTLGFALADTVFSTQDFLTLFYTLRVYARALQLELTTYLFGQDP

`CNC(=O)C(CCN1CCC(O)(c2ccc(Cl)cc2)CC1)(c1ccccc1)c1ccccc1` [Compound 3, 4-(4-(4-Chlorophenyl)-4-hydroxypiperidin-1-yl)-2,2-diphenyl-N-methyl-butanamide]: the inhibition of binding in data set [1], in data set [2] and in [3] was below 50% throughout. Further, the inhibition at 10 µM in data set [4] and in data set [5] (read-out: inhibition of binding) was above 50% throughout. In [5] (Ki, σ2), this compound gave a pKi above 8.00. Moreover, the “effect on washout of radioactivity from brain” value in data set [6] was “no discernible effect”.
As to `Cl.Cl.Cl.O[C@@H](COc1cccc2ncccc12)CN1CCN(C2c3ccccc3C3C(c4ccccc42)C3(Cl)Cl)CC1` (stereo partly drawn) [DCPQ, (2R)-anti-5-{3-[4-(10,11-dichloromethanodibenzo-suber-5-yl)piperazin-1-yl]-2-hydroxypropoxy}quinoline trihydrochloride, reference compound], the “effect on uptake of radioactivity into pituitary” value in data set [7] is listed as “no effect”. Besides, the “effect on rate at which each radiometabolite emerged in plasma” value in [8] is “little effect”.
For the compound `CN([11CH3])C(=O)C(CCN1CCC(O)(c2ccc(Cl)cc2)CC1)(c1ccccc1)c1ccccc1` [[^11C]loperamide], the “unchanged radiotracer as share of radioactivity in brain” value in data set [9] was ~ 50%.
As for `CN(C)C(=O)C(CCN1CCC(O)(c2ccc(Cl)cc2)CC1)(c1ccccc1)c1ccccc1` [loperamide, reference compound], in [6], the “effect on washout of radioactivity from brain” value is reported as “no discernible effect”.
